For test [1], the system named is HCT116 cells. The test is described as follows: Colony-forming assay with γ-radiation (synthetic sickness). The test is classed as cell-based. The procedure: (§1) The effect of survival of simultaneous disruption of two proteins was conducted using the clonogenic survival assay. To allow cells time to adhere to the plates, cells were seeded 24 h in advance. Cells were treated with the PNKP inhibitor A12B4C3 for 9-14 consecutive days in triplicate at 0 μM, 0.1 μM, 1 μM, and 10 μM final concentration where 100 cells were plated for the 0 μM, 0.1 μM and 1 μM concentration groups and 300 cells in the 10 μM concentration group. Colonies were then stained with a crystal violet containing 20% methanol for one hour after which the plates were washed in warm water and left to dry overnight. Colonies of 50+ cells were then counted using an automated colony counter (Oxford Optronix, Oxford, UK).
For the indicated colony-forming assays, cells were treated with 0, 1, 2, 4, 6, or 8 Gy of γ-radiation (^60Co Gammacell; Atomic Energy of Canada Limited, Ottawa, Canada).
These HCT116 cells were then subjected to additional testing to determine if disruption of PNKP in PTEN negative cells would hypersensitize these cells to ionizing radiation. These assays to determine ‘synthetic sickness’ were done using […] A12B4C3, which was added to the cells 24 h before irradiation in a colony-forming assay. After one day the cells were subjected to 0, 1, 2, 4, 6, or 8 Gy of γ-radiation. […]

Test [2] concerns PC3 cell lines lacking functional PTEN (p.R55fs*1, WT RAD51, p.BABE.puro, p.C124S, PC3 parental). The test is described as follows: Survival of PC3 cells in response to PNKP inhibition. The conditions noted are these: doses ≥10 μM, 12-16 days. Format: cell-based. Here is the method:
as §1
(§2) To investigate the feasibility of taking advantage of the newly identified partnership between PTEN and PNKP, we subjected the prostate cancer cell line, PC3 (naturally PTEN^−/−) to an increasing concentration of the PNKP inhibitor A12B4C3 (3) over a period of 12-16 days.

For test [3], the system named is PC3 cells reconstituted with WT PTEN or p.K289E. Described as above. Format: cell-based. The conditions noted are these: WT PTEN and p.K289E reconstituted PC3, 12-16 days. The procedure: as §1, §2
Test [4] concerns SUPM2 cells (naturally SHP-1+/+). The test is described as follows: Cell proliferation assay with ALCL cell lines (Alamar Blue), PNKP inhibition. The test is classed as cell-based. Conditions: SUPM2 (SHP-1+/+), approximately 10 μM, 12-16 days. Here is the method: (§3) Karpas 299 or SUPM2 cells were plated in 96-well format at a concentration of 5,000 cells/100 μL in complete RPMI. Increasing concentrations of the PNKP inhibitor A12B4C3 was added to each well at a constant concentration of DMSO and left to incubate for 12-16 days. 11 μL of 440 μM Alamar Blue was then loaded onto the plates and left to incubate for 24-48 hours after which fluorescence was determined as described above.
In general terms: The colour change of resazurin is a common sign of viable cells or microbes.

In test [5] the test system is Karpas 299 cells (naturally SHP-1−/−). The description is as above. Format: cell-based. Conditions: Karpas 299 (SHP-1−/−), approximately 10 μM, 12-16 days. The procedure: as §3
Test [6] has as its system HCT116 PTEN deleted cells (#22 and #35). The test is described as follows: Colony forming assay under PNKP inhibition. The test is classed as cell-based. The conditions noted are these: PTEN deleted HCT116, increasing concentrations. The procedure: as §1
For test [7], the system named is HCT116 PTEN wildtype cells (HCT116 parental and Neo124 vector only). The test is described as follows: Colony forming assay under PNKP inhibition. Conditions: PTEN proficient HCT116, increasing concentrations. Format: cell-based. Here is the method:
as §1

Test [8] has as its system A549(Scramble) and A549δPNKP cells. Kind of test: Mode of cell death determination (Hoescht 33342, Ethidium Homodimer III, Annexin V-FITC triple stain). Format: cell-based, human. Conditions: 100 μM, 24 to 72 hours. Here is the method:
A549(Scramble) or A549δPNKP cells were grown on coverslips in complete DMEM/F12 and were either transfected with ASN or SHP-1. Another control subjected these cell lines to 100 μM 5-(p-Bromobenzylidine)-α-isopropyl-4-oxo-2-thioxo-3-thiozolidineacetic acid (BH3I-1, Sigma-Aldrich, Oakville, ON), which is a known apoptosis inducer. The cells were grown under each condition for the indicated length of time before being subjected to a triple stain of Hoescht 33342, Ethidium Homodimer III and Annexin V-FITC (Biotium, Hayward, Calif.). Hoescht 33342 is an uncharged DNA stain that will stain the nuclei of healthy and non-healthy cells alike, however, Ethidium Homodimer III is a highly positively charged DNA stain that cannot readily enter cells unless there is a loss of membrane integrity. […]
To identify the mechanism in which cells undergo synthetic lethality upon simultaneous disruption of SHP-1 and PNKP, A549(Scramble) and A549δPNKP cells were grown on coverslips and transiently transfected with ASN or SHP-1 siRNA (FIGS. 21A and 21C, respectively). […] Cells were then simultaneously stained with Hoescht 33342, EthidiumHomodimer III and Annexin V-FITC, which fluoresce at different wavelengths (absorbance/emission; 350/461 nm, 528/617 nm, and 492/514 nm, respectively). […]

Entries after “also recorded” stand apart in the source; their conditions may differ.

In the case of `CCCCCCCCCCC(O)C1C=CC2C(=O)N(c3ccccc3)C(=O)C2N1Nc1ccc([N+](=O)[O-])cc1` (stereo not drawn) [A12B4C3, 2-(1-hydroxyundecyl)-1-(4-nitrophenylamino)-6-phenyl-6,7a-dihydro-1H-pyrrolo[3,4-b]pyridine-5,7(2H,4aH)-dione], the “sensitivity to ionizing radiation” value in test [1] (PNKP independently disrupted (PTEN proficient HCT116), 2 M A12B4C3 added 24 h before 0-8 Gy γ-radiation) was “increase in sensitivity to ionizing radiation”; in test [1] (PTEN negative HCT116, 2 M A12B4C3 added 24 h before 0-8 Gy γ-radiation), “increase in the sensitivity to ionizing radiation”. The survival result in test [2] is reported as “marked decrease in survival”; in test [3], “lethality under PNKP inhibition was rescued”; in test [4], “remain viable”; in test [5] it was “marked decrease in survival”. The “survival under PNKP inhibition” value in test [6] was “sensitive to PNKP disruption”; in test [7], “no effect”.
For the compound `CC(C)C(C(=O)O)N1C(=O)C(=Cc2ccc(Br)cc2)SC1=S` (stereo not drawn) [BH3I-1, 5-(p-Bromobenzylidine)-α-isopropyl-4-oxo-2-thioxo-3-thiozolidineacetic acid], the apoptotic cells result in test [8] was “substantial increase in the occurrence of apoptotic cells; also recorded: increase in apoptotic cells beginning at 24 hours and continuing on through 72 hours”.

For the origin of these results see US10087448B2, “Synthetic lethality in cancer” (The Governors of the University of Alberta, priority 2010, dated 2018).
